How the values were obtained:
[1] = Selectivity index, ratio of CC50 for cytotoxicity against human calu-3 cells to EC50 for antiviral activity against SARS CoV-2 USA-WA1/2020 infected in human Calu-3 cells; type: toxicity, cell-based; details: read-out: Ratio CC50/EC50
[2] = Selectivity index, ratio of CC50 for cytotoxicity against human Huh7.5 cells to EC50 for antiviral activity against SARS CoV-2 USA-WA1/2020 infected in human Huh7.5 cells; type: toxicity, cell-based; details: read-out: Ratio CC50/EC50
[3] = Selectivity index, ratio of CC50 for african green monkey Vero/TMPRSS2 cells to EC50 for antiviral activity against SARS CoV-2 USA-WA1/2020 infected in Vero/TMPRSS2 cells; type: toxicity, cell-based; details: read-out: Ratio CC50/EC50
[4] = Cytotoxicity against african green monkey Vero/TMPRSS2 cells assessed as reduction in cell viability incubated for 38 hrs by celltiter glo assay; type: toxicity, cell-based; details: chlorocebus aethiops
[5] = Cytotoxicity against human Huh7.5 cells assessed as reduction in cell viability incubated for 48 hrs by celltiter glo assay; type: toxicity, cell-based, Huh-7.5
[6] = Selectivity index, ratio of CC50 for cytotoxicity against human iPSC-lung cells to EC50 for antiviral activity against SARS CoV-2 USA-WA1/2020 infected in human iPSC-lung cells; type: toxicity, cell-based; details: read-out: Ratio CC50/EC50
SARS-CoV-2 [7] = test: Antiviral activity against SARS CoV-2 USA-WA1/2020 infected in human Huh7.5 cells pretreated for 30 to 60 mins followed by viral infection and measured after 48 hrs post infection by sytox green staining based immunofluorescence analysis; type: functional, organism-based; details: Severe acute respiratory syndrome coronavirus 2, USA-WA1/2020, Huh7.5; for EC90: time 2910-2940 min
SARS-CoV-2 [8] = test: Antiviral activity against SARS CoV-2 USA-WA1/2020 infected in human Calu-3 cells pretreated for 30 to 60 mins followed by viral infection and measured after 40 to 44 hrs by sytox green staining based analysis; type: functional, organism-based, Severe acute respiratory syndrome coronavirus 2
[9] = Cytotoxicity against human Calu-3 cells assessed as reduction in cell viability incubated for 40 to 44 hrs by celltiter-glo assay; type: toxicity, cell-based; details: time 40-44 hrs
SARS-CoV-2 [10] = test: Antiviral activity against SARS CoV-2 USA-WA1/2020 infected in human iPSC-lung cells pretreated for 30 to 60 mins followed by viral infection and measured after 24 hrs post infection by sytox green staining based analysis; type: functional, organism-based; details: Severe acute respiratory syndrome coronavirus 2, USA-WA1/2020, iPSC-Lung cell; for EC90: time 1470-1500 min
SARS-CoV-2 [11] = test: Antiviral activity against SARS CoV-2 USA-WA1/2020 infected in Vero/TMPRSS2 cells pretreated for 30 to 60 mins followed by viral infection and measured after 38 hrs post infection by sytox green staining based immunofluorescence analysis; type: functional, organism-based; details: Severe acute respiratory syndrome coronavirus 2, USA-WA1/2020, Vero/TMPRSS2; for EC90: time 2310-2340 min
[12] = Cytotoxicity against human iPSC-lung cells assessed as reduction in number of nuclei incubated for 24 hrs by celltiter glo assay; type: toxicity, cell-based, iPSC-Lung cell
[13] = Cytotoxicity against human Calu-3 cells assessed as reduction in cell viability incubated for 48.5 hrs by CellTiter-Glo assay; type: toxicity, cell-based
SARS-CoV-2 [14] = test: Antiviral activity against SARS CoV-2 USA-WA1/2020 infected in human Calu-3 cells assessed as reduction in viral RNA pretreated for 30 mins followed by viral infection and measured after 48 hrs by qRT-PCR analysis; type: functional, organism-based; details: Severe acute respiratory syndrome coronavirus 2, USA-WA1/2020, Calu-3
SARS-CoV-2 [15] = test: Potency index, ratio of remdesivir EC50 to test compound EC50 for antiviral activity against SARS CoV-2 USA-WA1/2020 infected in human Calu-3 cells pretreated for 30 to 60 mins followed by viral infection and measured after 40 to 44 hrs by sytox green staining based analysis; type: functional, Severe acute respiratory syndrome coronavirus 2; details: time 2430-2700 min
[16] = Severe acute respiratory syndrome coronavirus 2, USA-WA1/2020, Calu-3
[17] = Severe acute respiratory syndrome coronavirus 2, USA-WA1/2020, Calu-3, time 2430-2700 min

Compound	selectivity ratio [1]	selectivity ratio [2]	selectivity ratio [3]	further results
CCCCCCCCCCCCCCCCCCOC[C@H](COP(=O)(O)OC[C@H]1O[C@@](C#N)(c2ccc3c(N)ncnn23)[C@H](O)[C@@H]1O)OCc1ccc(C(F)(F)F)cc1	509			
CCCCCCCCCCCCCCCCCCOC[C@H](COP(=O)(O)OC[C@H]1O[C@@](C#N)(c2ccc3c(N)ncnn23)[C@H](O)[C@@H]1O)OCc1cccc(F)c1	422	392	> 369	
CCCCCCCC/C=C\CCCCCCCCOC[C@H](COP(=O)(O)OC[C@H]1O[C@@](C#N)(c2ccc3c(N)ncnn23)[C@H](O)[C@@H]1O)OCc1ccccc1	410	> 917	> 341	CC50 at 38 h [4]: > 100 µM; CC50 at 48 h [5]: > 100 µM; selectivity ratio [6]: > 74; EC50 (SARS-CoV-2 [7]): 0.109 µM; EC90 (SARS-CoV-2 [7]): 0.224 µM; EC50 (SARS-CoV-2 [8]; [16]): 0.193 µM; EC90 (SARS-CoV-2 [8]; [17]): 0.324 µM; CC50 [9]: 79.2 µM; EC50 (SARS-CoV-2 [10]): 0.267 µM; EC90 (SARS-CoV-2 [10]): 0.555 µM; EC50 (SARS-CoV-2 [11]): 0.293 µM; EC90 (SARS-CoV-2 [11]): 0.57 µM; CC50 at 24 h [12]: > 20 µM
CCCCCCCCCCCCCCCCCCOC[C@H](COP(=O)(O)OC[C@H]1O[C@@](C#N)(c2ccc3c(N)ncnn23)[C@H](O)[C@@H]1O)OCc1cccc(C(F)(F)F)c1	418			
CCCCCCCCCCCCCCOC[C@H](COP(=O)(O)OC[C@H]1O[C@@](C#N)(c2ccc3c(N)ncnn23)[C@H](O)[C@@H]1O)OCc1ccccc1	> 469	> 636	> 110	
CCCCCCCCCCCCCCCCCCOC[C@H](COP(=O)(O)OC[C@H]1O[C@@](C#N)(c2ccc3c(N)ncnn23)[C@H](O)[C@@H]1O)OCCCCCCCC	> 255	> 177	> 129	EC50 (SARS-CoV-2 [8]; calu-3): 0.16 µM; EC90 (SARS-CoV-2 [8]; time 2430-2700 min): 0.625 µM
N#C[C@@]1(c2ccc3c(N)ncnn23)O[C@H](CO)[C@@H](O)[C@H]1O [GS-441524]	> 666			CC50 at 48.5 h [13]: > 100 µM; EC50 (SARS-CoV-2 [14]): 0.15 µM; EC90 (SARS-CoV-2 [14]; time 48.5 hrs): 0.18 µM
CCCCCCCCCCCCCCCCOC[C@H](COP(=O)(O)OC[C@H]1O[C@@](C#N)(c2ccc3c(N)ncnn23)[C@H](O)[C@@H]1O)OCc1ccccc1	934	> 763	> 248	
CCCCCCCCCCCCCCCCCCOC[C@H](COP(=O)(O)OC[C@H]1O[C@@](C#N)(c2ccc3c(N)ncnn23)[C@H](O)[C@@H]1O)OCc1ccc(OC)c(F)c1	656	1170	> 561	selectivity ratio [6]: > 119
CCCCCCCCCCCCCCCCCCOC[C@H](COP(=O)(O)OC[C@H]1O[C@@](C#N)(c2ccc3c(N)ncnn23)[C@H](O)[C@@H]1O)OCc1ccccc1C#N	909	> 980	> 337	CC50 at 38 h [4]: > 1010 µM; EC50 (SARS-CoV-2 [11]): 0.296 µM
CCCCCCCCCCCCCCCCCCOC[C@H](COP(=O)(O)OC[C@H]1O[C@@](C#N)(c2ccc3c(N)ncnn23)[C@H](O)[C@@H]1O)OCc1cccc(C#N)c1	1810	2070		
CCCCCCCCCCCCCCCCOC[C@H](COP(=O)(O)OC[C@H]1O[C@@](C#N)(c2ccc3c(N)ncnn23)[C@H](O)[C@@H]1O)OCc1ccc(OC)c(F)c1	1480	1180	> 246	selectivity ratio [6]: > 153
CCCCCCCCCCCCCCCCCCOC[C@H](COP(=O)(O)OC[C@H]1O[C@@](C#N)(c2ccc3c(N)ncnn23)[C@H](O)[C@@H]1O)OCCC1CCCCC1	685	758		
CCCCCCCC/C=C\CCCCCCCCOC[C@H](COP(=O)(O)OC[C@H]1O[C@@](C#N)(c2ccc3c(N)ncnn23)[C@H](O)[C@@H]1O)OCc1ccc(OC)c(F)c1	839	> 1850	> 333	CC50 at 38 h [4]: > 100 µM; CC50 at 48 h [5]: > 100 µM; Ratio EC50 (SARS-CoV-2 [15]): 3.3; selectivity ratio [6]: > 243; EC50 (SARS-CoV-2 [7]): 0.054 µM; EC90 (SARS-CoV-2 [7]): 0.095 µM; EC50 (SARS-CoV-2 [8]; [16]): 0.07 µM; EC90 (SARS-CoV-2 [8]; [17]): 0.149 µM; CC50 [9]: 58.7 µM; EC50 (SARS-CoV-2 [10]): 0.082 µM; EC90 (SARS-CoV-2 [10]): 0.175 µM; EC50 (SARS-CoV-2 [11]): 0.3 µM; EC90 (SARS-CoV-2 [11]): 0.554 µM; CC50 at 24 h [12]: > 20 µM
CCCCCCCCCCCCCCCCCCOC[C@H](COP(=O)(O)OC[C@H]1O[C@@](C#N)(c2ccc3c(N)ncnn23)[C@H](O)[C@@H]1O)OCc1ccc(C#N)cc1	1400	1970		

From ChEMBL document CHEMBL5380858 (J Med Chem, 2023)
